Measurements published in US5167948A, “Diagnostic or radiotherapeutic composition comprising a hydrogen containing compound” (priority 1987, dated 1992).

What was measured:
[1] = Determination of the relaxation of the water protons (relaxation time T1, inversion recovery method); type: physicochemical; details: for T1: 2 millimolar solution in water, 89.55 MHz, room temp.
Procedure: Determination of the relaxation of the water protons by adding paramagnetic deuterated ferricinium compounds compared to the corresponding non-deuterated compounds. The following compounds are tested:
From the above compounds 2 millimolar solutions in water are prepared. Of these solutions the relaxation time T1 is determined at 89.55 MHz on a JEOL FX-90Q NMR spectrometer using the inversion recovery method (room temp.). In the experiments comprising in addition deuterium oxide, D2 O is added in a quantity of 1.0 mMole to a volume of 100 ml of the solution.

[2] = 103Ru-concentration in organs of rats after injection of Rc-amphetamine derivatives; type: in vivo; details: for 103Ru-concentration, brains / 103Ru-concentration, lungs / 103Ru-concentration, suprarenal glands: 0.5 μmol/kg; for D/H, brains / D/H, lungs / D/H, suprarenal glands: quotient deuterated / non-deuterated
Procedure: The above compounds are intravenously administered in doses of approx. 0.5 μmol/kg to two groups of each 4 rats. The compounds can be represented by the following formula: [drawing 7] After certain periods of time between 0 and 90 minutes after injection test animals are sacrificed and the ^103 Ru-concentration in the brains is determined. The results are graphically recorded in FIG. 1: the ^103 Ru-concentration (C) in the brains i.c. % dose/% body weight (% d/% wt), is plotted against the time (t) in min.
In the same way as described in Example X the effect of deuteration of N-methyl- and N,N-dimethylderivatives of ^103 Ru-labelled ruthenocene-amphetamine is investigated in vivo: groups of 3 or 4 rats as test animals; dose: 0.5 μmol/kg. After 15 or 20 minutes the ^103 Ru-concentration is determined in various organs of the rats, viz. brains, lungs and suprarenal glands, and presented in table B for the compounds tested. As will be apparent from the D/H value, i.e. the quotient of the ^103 Ru concentration of the deuterated compound and that of the non-deuterated compound, in all experiments except one (free amine-lungs) the affinity of the deuterated compounds to the organs is increased compared to the non-deuterated compounds.

[3] = tracer amounts, man; in words; cited from earlier work
[4] = + D2O, 1.0 mMole added to 100 ml of the solution

## [(C5 D5)2 Fe]^+ BF4^- [(d)]
[1]
  T1: 1.04 s

## [(CH3 -C5 D4)2 Fe]^+ BF4^- [(b)]
[1]
  T1: 1.23 s

## [103Ru+2].[2H]C([c-]1cccc1)C([2H])(C)NC([2H])([2H])[2H].c1cc[cH-]c1 (stereo not drawn) [--N-methyl D]
[2]; 15 min.
  103Ru-concentration, brains: 2.56 % dosis/% body weight
  103Ru-concentration, lungs: 11.3 % dosis/% body weight
  103Ru-concentration, suprarenal glands: 8.3 % dosis/% body weight
  D/H, brains: 1.12
  D/H, lungs: 1.26
  D/H, suprarenal glands: 1.77

## [2H]C([2H])([2H])CC(=O)C(CC(C)N(C)C)(c1ccccc1)c1ccccc1 (stereo not drawn) [methadone-d3]
[3]
  metabolic behaviour compared with the unmodified drug: substantially identical metabolic behaviour

## F[B-](F)(F)F.[Fe+3].c1cc[cH-]c1.c1cc[cH-]c1 [(c), [(C5 H5)2 Fe]^+ BF4^-]
[1]
  T1: 1.65 s
[1]; [4]
  T1: 1.64 s

## [2H]O[2H] [D2 O, deuterium oxide]
[1]; in words, not bound to the complex
  effect of D2O on relaxation time: does not change the relaxation time significantly

## [103Ru+2].[2H]C([c-]1cccc1)C([2H])(C)N(C([2H])([2H])[2H])C([2H])([2H])[2H].c1cc[cH-]c1 (stereo not drawn) [--N,N-dimethyl D]
[2]; 15 min.
  103Ru-concentration, brains: 3.33 % dosis/% body weight
  103Ru-concentration, lungs: 10.5 % dosis/% body weight
  103Ru-concentration, suprarenal glands: 11.9 % dosis/% body weight
  D/H, brains: 1.45
  D/H, lungs: 1.32
  D/H, suprarenal glands: 1.57

## [2H]C([c-]1cccc1)C([2H])(C)N.[Ru+2].c1cc[cH-]c1 (stereo not drawn) [--NH2 D, ^103 Ru-1-ruthenocenyl-2-aminopropane-1,2-d2]
[2]; 20 min.
  103Ru-concentration, brains: 2.56 % dosis/% body weight
  103Ru-concentration, lungs: 10.5 % dosis/% body weight
  103Ru-concentration, suprarenal glands: 6.2 % dosis/% body weight
  D/H, brains: 1.31
  D/H, lungs: 0.85
  D/H, suprarenal glands: 1.29
[2]; 20 min., listed as free amine
  D/H, lungs: decreased value

## [(CH3 -C5 H4)2 Fe]^+ BF4^- [(a)]
[1]
  T1: 1.62 s
[1]; [4]
  T1: 1.60 s
